# According to ChEMBL document CHEMBL5352476, “A comprehensive overview of Artemisinin and its derivatives as anticancer agents” (Eur J Med Chem, 2023):
# Legend:
# [1] = Cytotoxicity against human CCD 19Lu cells assessed as inhibition of cell growth; assay type: toxicity, cell-based
# [2] = tested on: Mus musculus; experiment: Antitumor activity against human RL95-2 cells xenografted in BALB/c nude mouse assessed as tumor growth inhibition rate at 5.0 mg/kg, ip administered three times a week for 4 weeks relative to control; assay type: functional; details: RL95-2, 672 h
# [3] = tested on: RL95-2; experiment: Antiproliferative activity against human RL95-2 cells assessed as inhibition of cell growth by MTT assay; assay type: functional, cell-based; details: pooled result: one value given for 6 cell lines, strains, targets or settings
# [4] = tested on: HepG2; experiment: Antiproliferative activity against human HepG2 cells assessed as inhibition of cell growth by MTT assay; assay type: functional, cell-based
# [5] = tested on: HCT-116; experiment: Antiproliferative activity against human HCT-116 cells assessed as inhibition of cell growth; assay type: functional, cell-based
# [6] = tested on: SK-BR-3; experiment: Antiproliferative activity against human SK-BR-3 cells assessed as inhibition of cell growth; assay type: functional, cell-based
# [7] = tested on: MDA-MB-231; experiment: Antiproliferative activity against human MDA-MB-231 cells assessed as inhibition of cell growth; assay type: functional, cell-based
# [8] = tested on: HeLa; experiment: Antiproliferative activity against human HeLa cells assessed as inhibition of cell growth; assay type: functional, cell-based
# [9] = Cytotoxicity against human WI-38 cells assessed as inhibition of cell growth incubated for 72 hrs by MTT assay; assay type: toxicity, cell-based
# [10] = tested on: NCI-H460; experiment: Antiproliferative activity against human NCI-H460 cells assessed as inhibition of cell growth incubated for 72 hrs by MTT assay; assay type: functional, cell-based; details: NCI-H460, 72 h
# [11] = tested on: U-87 MG; experiment: Antiproliferative activity against human U-87 MG cells assessed as inhibition of cell growth incubated for 72 hrs by MTT assay; assay type: functional, cell-based, U-87MG ATCC
# [12] = tested on: HL-60; experiment: Antiproliferative activity against human HL-60 cells assessed as inhibition of cell growth incubated for 72 hrs by MTT assay; assay type: functional, cell-based; details: HL-60, 72 h
# [13] = tested on: A549; experiment: Antiproliferative activity against human A549 cells assessed as inhibition of cell growth incubated for 72 hrs by MTT assay; assay type: functional, cell-based; details: A549, 72 h
# [14] = tested on: MDA-MB-231; experiment: Antiproliferative activity against human MDA-MB-231 cells assessed as inhibition of cell growth incubated for 72 hrs by MTT assay; assay type: functional, cell-based; details: MDA-MB-231, 72 h
# [15] = tested on: HT-29; experiment: Antiproliferative activity against human HT-29 cells assessed as inhibition of cell growth incubated for 72 hrs by MTT assay; assay type: functional, cell-based; details: HT-29, 72 h
# [16] = tested on: RPMI-7951; experiment: Antiproliferative activity against human RPMI-7951 cells assessed as inhibition of cell growth incubated for 24 hrs by MTT assay; assay type: functional, cell-based; details: RPMI-7951, 24 h
# [17] = tested on: U-87 MG; experiment: Antiproliferative activity against human U87 cells assessed as inhibition of cell growth incubated for 24 hrs by MTT assay; assay type: functional, cell-based, U-87MG ATCC
# [18] = tested on: U-87 MG; experiment: Antiproliferative activity against human U87 cells assessed as inhibition of cell growth incubated for 72 hrs by MTT assay; assay type: functional, cell-based, U-87MG ATCC
smiles,measurement,setting,value
CCCCCCCCCCCCCCNC(=O)C[C@H]1O[C@@H]2O[C@@]3(C)CC[C@H]4[C@H](C)CC[C@@H]([C@H]1C)[C@@]24OO3,IC50,[1],460 nM
C[C@H]1[C@@H](OCCNCCO[C@H]2O[C@@H]3O[C@@]4(C)CC[C@H]5[C@H](C)CC[C@@H]([C@H]2C)[C@@]35OO4)O[C@@H]2O[C@@]3(C)CC[C@H]4[C@H](C)CC[C@@H]1[C@@]24OO3,inhibition in vivo at 5 mg/kg,[2],49.9%
same,IC50,[3],1160 nM
CCCCCCCCCCCCNC(=O)C[C@H]1O[C@@H]2O[C@@]3(C)CC[C@H]4[C@H](C)CC[C@@H]([C@H]1C)[C@@]24OO3,IC50,[4],1200 nM
C[C@H]1[C@@H](CCCOC(=O)NCCC[P+](c2ccccc2)(c2ccccc2)c2ccccc2)O[C@@H]2O[C@@]3(C)CC[C@H]4[C@H](C)CC[C@@H]1[C@@]24OO3,IC50,[5],820 nM
same,IC50,[6],820 nM
same,IC50,[7],820 nM
same,IC50,[8],820 nM
C[C@@H]1CC[C@H]2[C@@H](C)C(OCCNC(=O)c3ccc(COc4ccc(/C=C/S(=O)(=O)Nc5ccc(OC(F)(F)F)cc5)cc4)cc3)O[C@@H]3O[C@@]4(C)CC[C@@H]1[C@]32OO4 (stereo partly drawn),IC50 at 72 h,[9],90 nM
same,IC50,[10],90 nM
same,IC50,[11],90 nM
same,IC50,[12],90 nM
same,IC50,[13],90 nM
same,IC50,[14],90 nM
same,IC50,[15],90 nM
COC(=O)C(Cc1ccc(OC(=O)CCC(=O)O[C@@H]2O[C@@H]3O[C@@]4(C)CC[C@H]5[C@H](C)CC[C@@H]([C@H]2C)[C@@]35OO4)cc1)NC(=O)CCC(=O)O[C@@H]1O[C@@H]2O[C@@]3(C)CC[C@H]4[C@H](C)CC[C@@H]([C@H]1C)[C@@]24OO3 (stereo partly drawn),IC50,[16],1760 nM
CCCCCCCCCCCC[C@@H](O)C[C@H]1O[C@@H]2O[C@@]3(C)CC[C@H]4[C@H](C)CC[C@@H]([C@H]1C)[C@@]24OO3,IC50,[4],4400 nM
C[C@@H]1CC[C@H]2[C@@H](C)C(OCCOc3ccc(/C=C/S(=O)(=O)Nc4ccc(OC(F)(F)F)cc4)cc3)O[C@@H]3O[C@@]4(C)CC[C@@H]1[C@]32OO4 (stereo partly drawn),IC50 at 72 h,[9],50 nM
same,IC50,[10],50 nM
same,IC50,[11],50 nM
same,IC50,[12],50 nM
same,IC50,[13],50 nM
same,IC50,[14],50 nM
same,IC50,[15],50 nM
C[C@H]1[C@H](OC(=O)CCC(=O)OCc2ccc(OC(=O)CCC(=O)O[C@@H]3O[C@@H]4O[C@@]5(C)CC[C@H]6[C@H](C)CC[C@@H]([C@H]3C)[C@@]46OO5)cc2)O[C@@H]2O[C@@]3(C)CC[C@H]4[C@H](C)CC[C@@H]1[C@@]24OO3,IC50,[16],50 nM
CCCCCCCCCCCC[C@H](O)C[C@H]1O[C@@H]2O[C@@]3(C)CC[C@H]4[C@H](C)CC[C@@H]([C@H]1C)[C@@]24OO3,IC50,[4],2800 nM
C[C@H]1[C@@H](OCCCN=C=S)O[C@@H]2O[C@@]3(C)CC[C@H]4[C@H](C)CC[C@@H]1[C@@]24OO3,IC50,[17],7410 nM
same,IC50,[18],7350 nM
